Experiment: Determination of GC-odor threshold values
Conditions: gas chromatograph with sniff port, panel of trained evaluators; absolute amount delivered at the sniff port
Protocol: According to standard procedures known to the person skilled in the art, threshold values for volatile perfumery compounds are determined on a gas chromatograph equipped with a sniff port by a panel of trained evaluators. The lowest concentration smelled by each panellist is recorded as the individual threshold value expressed in ng (absolute amount of compound delivered at the sniff port).
Under identical conditions the odour threshold value for the individual compounds was measured.

Compound	odour threshold value geometric mean [ng]
Cc1ccccc1C(C#N)=C1CCCCC1 [Example 1, Cyclohexylidene-o-tolyl-acetonitrile]	0.12
Cc1cccc(C(C#N)=C2CCCCC2)c1 [Example 4, Cyclohexylidene-m-tolyl-acetonitrile]	1.08
Cc1ccc(C(C#N)=C2CCCCC2)cc1 [Example 2, Cyclohexylidene-p-tolyl-acetonitrile]	2.91
N#CC(=C1CCCCC1)c1ccccc1 [Peonile ®, cyclohexylidene-phenyl-acetonitrile]	0.53

— patent US7655701B2, “Cycloalkylidene-(ortho substituted phenyl)-acetonitriles and their use as odorants” (Givaudan SA, priority 2005, dated 2010)
